# Test results from patent publication US7109177B2, “Methods and compositions for the manufacture of C-3′ and C-4′ anthracycline antibiotics” (Houston Pharmaceuticals, Inc., priority 1999, dated 2006).
# Values joined by “and” are separate entries in the source; they are usually repeats but may differ in a detail not shown here. Identical values can stand only once. Like-named read-outs stand apart in the source and are kept apart here.
# Legend:
# [1] = test system: sensitive and MDR tumor cell lines; assay: In vitro evaluation of cytotoxicity compared with DOX (cell line not given); type: cell-based, human; details: for Cytotoxicity compared to DOX, in words: in vitro evaluation; for Direct comparison of cytotoxicity with DOX, in words: effect of C-3′ and C-4′ substitutions on potency
# Method: (§1) In vitro drug cytotoxicities against human breast carcinoma wild-type MCF-7 and MRP-resistant MCF-7NP-16 cells were assessed by using the […], as previously reported (Green et al., 1984). […] Drugs were then added to the wells to achieve a final drug concentration ranging from 0.1 to 50 μg/mL. Four wells were used for each concentration. […] After a 4-hour incubation, 100 μL of buffer containing 50% N,N-dimethylformamide and 20% SDS was added to solubilize the MTT formazan. […] Results and Discussion
# (§2) Thus, for the in vitro evaluation of substituted anthracyclines having C-3′ alkylated anthracyclines modified at benzyl ring and having 4′-substituted-benzylated anthracyclines, the inventors selected two sensitive cell lines: a human carcinoma KB and MCF-7 human breast cancer, the multi-drug-resistant (MDR) counterpart of KB (KBV1 carcinoma), which overexpresses MDR1 gene that encodes a membrane transport glycoprotein (P-gp), the MCF-7NVP-16 cell line that overexpresses the multi-drug-resistant associated protein (MRP), and the MCF-7/dox cell line which overexpresses MDR1 gene.
# [2] = test system: breast tumors; assay: In vivo prevention of tumor development in a mouse cancer model; details: compared with buffer-treated control mice that develop tumors
# Method: In an initial round of in vivo trials, a mouse model of human cancer with the histologic features and metastatic potential resembling tumors seen in humans (Katsumata et al., 1995) is used. The animals are treated with analogs of anthracyclines having C-3′-substitutions as described or anthracycline analogs with C-4′-substitutions synthesized in the present invention to determine the suppression of tumor development.
# Two groups of mice of a suitable cancer model are treated with doses of substituted anthracyclines with substitutions at the C-3′-sugar or having C-4′-substituted sugar moietied. Several combinations and concentrations of the substituted anthracyclines are tested. Control mice are treated with buffer only.
# The effect of substituted anthracyclines on the development of breast tumors is compared with the control group by examination of tumor size and histopathologic examination (breast tissue is cut and stained with hematoxylin and eosin) of breast tissue.
# [3] = test system: human carcinoma KB cells; assay: MTT cytotoxicity assay, sensitive KB cells; type: cell-based
# Method: as §1, §2
# [4] = test system: KB-V1 (KBV1) carcinoma cells; assay: MTT cytotoxicity assay, multi-drug-resistant KB-V1 cells (MDR1/P-gp); type: cell-based, human; set-up: ID50 KBV1: unit not given here; details: for Effectiveness as measured by resistance index (RI), in words: in vitro, compared with daunorubicin or doxorubicin
# Method: as §1, §2
# [5] = test system: MCF-7/VP-16 cells
# Method: Compounds synthesized using the methods described above were tested using a standard MTT. assay (Green et al., 1984) against human carcinoma sensitive (KB) and multi drug-resistant (KBV1) cells and MCF-7 and MCF-7/VP-16 resistant cells characterized as having the MRP (multi-drug resistant associated protein) phenotype.
# In vitro drug cytotoxicities against human breast carcinoma wild-type MCF-7 and MRP-resistant MCF-7NP-16 cells were assessed by using the MT reduction assay, as previously reported (Green et al., 1984). […] Drugs were then added to the wells to achieve a final drug concentration ranging from 0.1 to 50 μg/mL. Four wells were used for each concentration. […] After a 4-hour incubation, 100 μL of buffer containing 50% N,N-dimethylformamide and 20% SDS was added to solubilize the MTT formazan.
# [6] = test system: CEM leukemic cells; assay: Quantitative apoptotic DNA fragmentation assay; type: cell-based; details: 24 h incubation
# Excerpt: Results are from two independent studies carried out in duplicate.
# [7] = test system: human breast carcinoma MCF-7 cells; set-up: unit not given beside the values
# [8] = test system: MCF-7/DOX cells; assay: MTT cytotoxicity assay, MCF-7/DOX cells (MDR1)
# [9] = Table 2, MTT assay, mean of at least 4 experiments
smiles,measurement,setting,value
"CCCCC(=O)OCC(=O)[C@]1(O)Cc2c(O)c3c(c(O)c2[C@@H](O[C@H]2C[C@H](O)[C@H](OCc4ccccc4)[C@H](C)O2)C1)C(=O)c1c(OC)cccc1C3=O [WP571, 3-deamino-4-O-benzyl-3-O-hydroxy-14-O-pentanoyl-doxorubicin]","Cytotoxicity compared to DOX, in words",[1],unusually potent cytotoxic agents
same,"Tumor development in treated mice, predicted",[2],resistant to tumor development
"COc1cccc2c1C(=O)c1c(O)c3c(c(O)c1C2=O)C[C@@](O)(C(=O)CO)C[C@@H]3O[C@H]1C[C@H](O)[C@H](OCc2ccccc2)[C@H](C)O1 [WP727, 4-O-benzyl-3-deamino-3-hydroxy-doxorubicin]","Cytotoxicity compared to DOX, in words",[1],unusually potent cytotoxic agents
same,"Tumor development in treated mice, predicted",[2],resistant to tumor development
"CC(=O)[C@]1(O)Cc2c(O)c3c(c(O)c2[C@@H](O[C@H]2C[C@H](N)[C@H](OCc4ccc(F)cc4)[C@H](C)O2)C1)C(=O)c1ccccc1C3=O [WP797, 4′-(4-Fluoro-benzyloxy)-4-demethoxydaunorubicine]","Cytotoxicity compared to DOX, in words",[1],unusually potent cytotoxic agents
same,"Tumor development in treated mice, predicted",[2],resistant to tumor development
"CC(=O)[C@]1(O)Cc2c(O)c3c(c(O)c2[C@@H](O[C@H]2C[C@H](N)[C@H](OCc4ccccc4)[C@H](C)O2)C1)C(=O)c1ccccc1C3=O [WP783, 4′-O-Benzyl-4-demethoxydaunorubicin]","Direct comparison of cytotoxicity with DOX, in words",[1],drastically increase the potency
same,"Cytotoxicity compared to DOX, in words",[1],unusually potent cytotoxic agents
same,"Tumor development in treated mice, predicted",[2],resistant to tumor development
same,ID50 KB,"[3]; Table 3, under EXP. 2",0.43 ± 0.21
same,ID50 KBV1,"[4]; Table 3, under EXP. 2",1.1 ± 0.8
same,RI (KBV1 vs KB),"[4]; Table 3, under EXP. 2",2.6
same,"Effectiveness as measured by resistance index (RI), in words",[4],significantly more effective
"CC(=O)O[C@H]1[C@@H](N=[N+]=[N-])C[C@@H](O[Si](C)(C)C(C)(C)C)O[C@H]1C [WP417, 4-O-acetyl-3-Azido-1-O-t-butyldimethylsilyl-2,3,6-trideoxy-β-L-lyxo hexapyranose]","Tumor development in treated mice, predicted",[2],resistant to tumor development
"C[C@@H]1O[C@H](O[Si](C)(C)C(C)(C)C)C[C@H](N=[N+]=[N-])[C@@H]1O [WP418, t-Butyldimethylsilyl 3-azido- -2,3,6-trideoxy-β-L-lyxo hexapyranose]","Tumor development in treated mice, predicted",[2],resistant to tumor development
"COc1cccc2c1C(=O)c1c(O)c3c(c(O)c1C2=O)C[C@@](O)(C(=O)CO)C[C@@H]3O[C@H]1C[C@H](N)[C@H](OCc2ccccc2)[C@H](C)O1 [WP744, 4′-O-Benzyl-doxorubicin]","Cytotoxicity compared to DOX, in words",[1],unusually potent cytotoxic agents
same,"Tumor development in treated mice, predicted",[2],resistant to tumor development
same,ID50 KB,"[3]; Table 3, EXP. 1",1.44 ± 0.45
same,ID50 MCF-7/VP-16,"[5]; Table 3, EXP. 1",2.3 ± 1.9
same,RI (MCF-7/VP-16 vs MCF-7),"[5]; Table 3, EXP. 1",1.41
same,RI (MCF-7/VP-16 vs MCF-7),"[5]; Table 3, under EXP. 2",1.4 and 1.6
same,"Fragmented DNA, % Total DNA",[6]; 0.05 μM,17.8%
same,"Fragmented DNA, % Total DNA",[6]; 0.1 μM,31.3%
same,"Fragmented DNA, % Total DNA",[6]; 0.5 μM,46.7%
same,ID50 KBV1,"[4]; Table 3, EXP. 1",2.76 ± 0.52
same,RI (KBV1 vs KB),"[4]; Table 3, EXP. 1",1.84
same,ID50 KBV1,"[4]; Table 3, under EXP. 2",2.1 ± 0.5 and 4.07 ± 1.85
same,"Effectiveness as measured by resistance index (RI), in words",[4],significantly more effective
same,ID50 MCF-7,"[7]; Table 3, EXP. 1",1.63 ± 0.5
same,ID50 MCF-7/DOX,"[8]; Table 3, EXP. 1",5.25
same,RI (MCF-7/DOX vs MCF-7),"[8]; Table 3, EXP. 1",3.22
same,ID50 MCF-7/DOX,"[8]; Table 3, under EXP. 2",0.89 ± 0.10
same,RI (MCF-7/DOX vs MCF-7),"[8]; Table 3, under EXP. 2",2.41
"COc1cccc2c1C(=O)c1c(O)c3c(c(O)c1C2=O)C[C@@](O)(C(=O)CO)C[C@@H]3O[C@H]1C[C@H](N)[C@H](OCc2c(F)cccc2F)[C@H](C)O1 [WP799, 4′-(2,6-difluoro-benzyloxy)-doxorubicine]","Cytotoxicity compared to DOX, in words",[1],unusually potent cytotoxic agents
same,"Tumor development in treated mice, predicted",[2],resistant to tumor development
"COc1cccc2c1C(=O)c1c(O)c3c(c(O)c1C2=O)C[C@@](O)(C(=O)CO)C[C@@H]3O[C@H]1C[C@H](N)[C@H](O)[C@H](C)O1 [DOX, doxorubicin, reference compound]",ID50 KB,[3]; [9],0.50 ± 0.0 µg/mL and 0.43 ± 0.19 µg/mL
same,ID50 KB,"[3]; Table 3, EXP. 1",2.35
same,ID50 MCF-7/VP-16,"[5]; Table 3, EXP. 1",3.0
same,RI (MCF-7/VP-16 vs MCF-7),"[5]; Table 3, EXP. 1",10
same,ID50 MCF-7/VP-16,"[5]; Table 3, under EXP. 2",8.3 ± 0.5 and 6.87 ± 0.58
same,RI (MCF-7/VP-16 vs MCF-7),"[5]; Table 3, under EXP. 2",16.6 and 13
same,"Fragmented DNA, % Total DNA",[6]; 0.1 μM,−0.2%
same,"Fragmented DNA, % Total DNA",[6]; 0.5 μM,27.1%
same,"Fragmented DNA, % Total DNA",[6]; 1 μM,28.7%
same,"Fragmented DNA, % Total DNA",[6]; 2 μM,38.3%
same,ID50 KB-V1,[4]; [9],>100 µg/mL and 109 ± 28 µg/mL
same,RI (resistance index) KB-V1 vs KB,"[4]; Table 2, higher RI = less effective against MDR",>200
same,ID50 KBV1,"[4]; Table 3, EXP. 1",>100
same,RI (KBV1 vs KB),"[4]; Table 3, EXP. 1",>42.6
same,ID50 KBV1,"[4]; Table 3, under EXP. 2",174 ± 32 and >100
same,ID50 MCF-7,"[7]; Table 3, EXP. 1",0.3
same,ID50 MCF-7,"[7]; Table 3, under EXP. 2",0.50 ± 0.26 and 0.53 ± 0.25
same,ID50 MCF-7/DOX,"[8]; Table 3, EXP. 1",>100
same,RI (MCF-7/DOX vs MCF-7),"[8]; Table 3, EXP. 1",>333
same,ID50 MCF-7/DOX,"[8]; Table 3, under EXP. 2",>100
same,RI (MCF-7/DOX vs MCF-7),"[8]; Table 3, under EXP. 2",>189
"COc1cccc2c1C(=O)c1c(O)c3c(c(O)c1C2=O)C[C@@](O)(C(=O)CO)C[C@@H]3O[C@H]1C[C@H](N)[C@@H](OCc2ccccc2)[C@H](C)O1 [WP750, 4′-O-Benzyl-4′epi-doxorubicin]","Direct comparison of cytotoxicity with DOX, in words",[1],drastically increase the potency
same,"Cytotoxicity compared to DOX, in words",[1],unusually potent cytotoxic agents
same,"Tumor development in treated mice, predicted",[2],resistant to tumor development
same,ID50 KB,"[3]; Table 3, under EXP. 2",6.4
same,ID50 KBV1,"[4]; Table 3, under EXP. 2",56 ± 29
same,RI (KBV1 vs KB),"[4]; Table 3, under EXP. 2",8.8
same,"Effectiveness as measured by resistance index (RI), in words",[4],significantly more effective
